Key:
[1] = system: thymocytes; test: Flow cytometry of thymocytes from old mice; format: in vivo; conditions: 500 mg/kg p.o. in drinking water, 6 weeks (FIG. 3)
Protocol: The administering of β-NMN at 500 mg/kg, of α-NMN at 500 mg/kg and of the vehicle (water) was obtained via oral route (p.o) in the drinking water to young and old mice. The solutions were prepared by dissolving the powder of β-NMN or α-NMN in the vehicle (water). The study comprised 4 groups each having 6 mice: • Group 1: young mice (aged 10 weeks)+drinking water (vehicle) • Groupe 2: old mice (aged 15 months)+drinking water (vehicle) • Group 3: old mice (aged 15 months)+compound I-B (alpha-NMN) in the drinking water • Group 4: old mice (aged 15 months)+compound I-A (beta-NMN) in the drinking water The water consumption of the mice was assessed per cage every other day. The mice were weighed every week. The mice in Group 3 were sacrificed after 4 weeks for organ collection and characterisation of T cell function. The mice in Group 4 were sacrificed after 6 weeks for organ collection and characterisation of T cell function. On the day of sacrifice, the mice were anaesthetised with Vetoflurane (isoflurane) and blood samples were taken from the retroorbital sinus. The blood was incubated for 30 minutes at ambient temperature and then centrifuged at 1300 g for 10 minutes. […] The thymus was weighed and measured to evaluate involution thereof. […] Measured parameters: The results of flow cytometry are expressed in number or as a proportion of cells per organ. […]

[2] = system: CD4+ and CD8+ T cells (splenocytes); test: Proliferation assay of CFSE-stained splenocytes from treated mice after stimulation; format: in vivo; conditions: splenocytes of treated old mice, anti-CD3/CD28 beads 96 h
Protocol: Proliferation assay: At D0+5 weeks, the splenocytes were marked with 2.5 μM CFSE and cultured at a concentration of 0.25×10^6 cells per well in a 96-well plate. The cells were stimulated with 2.5 μg InfluvacTetra® and incubated at 37° C. for 96 hours. The cells were then marked with anti-CD4 and CD8 antibodies and the proliferation of the T CD4+ and CD8+ cells was analysed by flow cytometry. The total splenocytes were stained with Carboxyfluorescein succinimidyl ester (CFSE) and stimulated with beads coated with anti-CD3/CD28 for 96 h. The mean fluorescence intensity of the CFSE was analysed and the ratio before and after stimulation was calculated.

## NC(=O)c1ccc[n+]([C@@H]2O[C@H](COP(=O)([O-])O)[C@@H](O)[C@H]2O)c1 (stereo in doubt) [I-A, nicotinamide mononucleotide]
[1]
  number of CD8+ thymocytes: increase in the number of CD8+ thymocytes
[2]; compared with the three other groups (FIG. 9A)
  proliferation of CD4 cells: significant increase in the proliferation of CD4 and CD8 cells
[2]; compared with the three other groups (FIG. 9B)
  proliferation of CD8 cells: significant increase in the proliferation of CD4 and CD8 cells
